Test results as given in patent US20040063685A1, “Combination Drugs” (priority 2000, published 2004).

How the values were obtained:
E. coli O111 strain = test: Survival of mice intraperitoneally inoculated with E. coli O111, combined use with ceftazidime; format: in vivo; settings: FIG. 1
Protocol: The E. coli O111 strain was suspended in 5% mucin, and 0.5 ml thereof was intraperitoneally inoculated to mice (BALB/c, male, 5-week-old) (9×10^4 CFU per mouse). At 1 hr after inoculation, an antibacterial agent, ceftazidime (CAZ, 12.5 μg/kg) was administered subcutaneously, and compound 29 (test compound 30 mg/kg) of Reference Example B65 suspended in a 0.5% methyl cellulose (MC) solution was simultaneously administered orally.

[1] = crystals

In the case of `CCOC(=O)C1=CCCCC1S(=O)(=O)Nc1ccc(F)cc1Cl` (stereo not drawn) [compound 29, ethyl 6-[N-(2-chloro-4-fluorophenyl)sulfamoyl]-1-cyclohexene-1-carboxylate], the survival rate (E. coli O111 strain; combined use: compound 29 30 mg/kg orally (0.5% methyl cellulose) and ceftazidime (CAZ) 12.5 μg/kg subcutaneously at 1 hr after inoculation, BALB/c male mice, 9×10^4 CFU per mouse, monitored for a week) is reported as “remarkably increases” and the “effectiveness of test compound alone (survival)” value (E. coli O111 strain; compound 29 30 mg/kg orally without ceftazidime, BALB/c mice infected with E. coli O111) is reported as “low effectiveness”.

For `CCOC(=O)C1=CCCCC1S(=O)(=O)Nc1ccc(F)cc1Cl` (stereo not drawn) [crystals of compound B, d-ethyl 6-[N-(2-chloro-4-fluorophenyl)sulfamoyl]-1-cyclohexene-1-carboxylate], the hygroscopicity [1] was “low”.
